Numbers after ± are expanded uncertainties.

The conditions of this series: 298.15 K; 101.33 kPa; Liquid; Vibrating tube method.
As for `CCCCCC[N+]1(C)CCCC1.O=S(=O)([N-]S(=O)(=O)C(F)(F)F)C(F)(F)F`, the mass density is on record as 1336 ± 1.6 kg/m3.

As to `CCCC[N+]1(C)CCCC1.O=S(=O)([N-]S(=O)(=O)C(F)(F)F)C(F)(F)F`, the mass density is given as 1394.3 ± 0.6 kg/m3.

`CCCCCC[n+]1ccn(C)c1.O=S(=O)([N-]S(=O)(=O)C(F)(F)F)C(F)(F)F`: the mass density is listed as 1371.6 ± 0.7 kg/m3.

`CCC[N+](C)(C)CC.O=S(=O)([N-]S(=O)(=O)C(F)(F)F)C(F)(F)F`: the mass density came out at 1403.5 ± 0.6 kg/m3.

The record behind these values is the NIST ThermoML archive (doi:10.1016/j.fluid.2011.12.008).
